Laboratory results reported in the CheMixHub viscosity set.
Values joined by “and” are separate entries in the source; they are usually repeats but may differ in a detail not shown here. Equal entries are not always repeated.

Key:
[1] = xn = mol fraction of the nth substance listed

CCCCCC(C)C
100 kPa
Conditions	viscosity [mPa·s]
293.15 K	0.5
303.15 K	0.444
313.15 K	0.393
323.15 K	0.355

CCCCCCCCCCCC[P+](CCCC)(CCCC)CCCC.N#Cc1ccc[n-]1
100 kPa
Conditions	viscosity [mPa·s]
293.15 K	567
298.15 K	389
303.15 K	297
313.15 K	166

CCCC[n+]1ccn(C)c1.N#C[C-](C#N)C#N
100 kPa
Conditions	viscosity [mPa·s]
293.15 K	34.9
298.15 K	27.97
303.15 K	22.85
308.15 K	18.98
313.15 K	15.99
318.15 K	13.66
323.15 K	11.8

CCOS(=O)(=O)[O-].CC[N+](CC)=C(N(C)C)N(C)C
100 kPa
Conditions	viscosity
293.15 K	190.9 mPa·s and 190.9 mPa·s
298.15 K	139 mPa·s and 139 mPa·s
303.15 K	104.9 mPa·s and 104.9 mPa·s
308.15 K	80.44 mPa·s and 80.44 mPa·s
313.15 K	63.24 mPa·s and 63.24 mPa·s
318.15 K	50.27 mPa·s and 50.27 mPa·s
323.15 K	40.55 mPa·s and 40.55 mPa·s

c1ccc2c(c1)CCCC2
viscosity
Conditions	293.15 K	298.15 K	303.15 K	308.15 K	313.15 K	318.15 K	323.15 K
100 kPa	2.195 mPa·s and 2.2 mPa·s	1.985 mPa·s and 1.99 mPa·s	1.807 mPa·s and 1.81 mPa·s	1.654 mPa·s and 1.66 mPa·s	1.521 mPa·s and 1.52 mPa·s	1.403 mPa·s and 1.4 mPa·s	1.301 mPa·s and 1.3 mPa·s
101 kPa	–	1.985 mPa·s	–	–	–	–	–
101.33 kPa	–	1.968 mPa·s	1.778 mPa·s	1.612 mPa·s	1.473 mPa·s	–	–
102 kPa	2.25 mPa·s	–	1.85 mPa·s	–	–	–	–

CCNCCO + O=C=O
viscosity [mPa·s], [1], 101.3 kPa
Conditions	293.15 K	303.15 K	313.15 K	323.15 K
x2 = 0.09091	51.76	29.14	17.6	11.32
x2 = 0.1667	197.6	99.53	54.38	31.96
x2 = 0.2308	791.4	361	179.9	97.29

CCCCOCCO + O=[N+]([O-])c1ccccc1
[1], 298.15 K, 101 kPa
Conditions	viscosity [mPa·s]
x2 = 0.0547	2.794
x2 = 0.1022	2.774
x2 = 0.2045	2.736
x2 = 0.3045	2.699
x2 = 0.4006	2.651
x2 = 0.4508	2.618
x2 = 0.4991	2.58
x2 = 0.5486	2.537
x2 = 0.594	2.492
x2 = 0.6924	2.376
x2 = 0.7994	2.223
x2 = 0.8996	2.042
x2 = 0.9389	1.959

CCCCCCCCCCCC[P+](CCCC)(CCCC)CCCC.N#Cc1ccc[n-]1 + OCCN(CCO)CCO
[1], 100 kPa
Conditions	viscosity [mPa·s]
293.15 K, x1 = 0.017	983
293.15 K, x1 = 0.244	974
293.15 K, x1 = 0.325	926
293.15 K, x1 = 0.431	828
293.15 K, x1 = 0.538	765
293.15 K, x1 = 0.755	675
298.15 K, x1 = 0.035	674
298.15 K, x1 = 0.054	682
298.15 K, x1 = 0.096	687
298.15 K, x1 = 0.121	686
298.15 K, x1 = 0.177	678

CCCCOCCO + OCCO
[1], 101 kPa
Conditions	viscosity [mPa·s]
293.15 K, x1 = 0.0517	19.96
293.15 K, x1 = 0.099	18.69
293.15 K, x1 = 0.2024	15.74
293.15 K, x1 = 0.2993	13.1
293.15 K, x1 = 0.4009	10.68
293.15 K, x1 = 0.4475	9.72
293.15 K, x1 = 0.5022	8.702
293.15 K, x1 = 0.5447	7.996
293.15 K, x1 = 0.6011	7.158
293.15 K, x1 = 0.7009	5.905
293.15 K, x1 = 0.8048	4.826
293.15 K, x1 = 0.8992	3.996
293.15 K, x1 = 0.9413	3.661
298.15 K, x1 = 0.0515	16.18
298.15 K, x1 = 0.1025	15.09
298.15 K, x1 = 0.1973	12.9
298.15 K, x1 = 0.2977	10.71
298.15 K, x1 = 0.3863	9.036
298.15 K, x1 = 0.4425	8.124
298.15 K, x1 = 0.4743	7.652
298.15 K, x1 = 0.5523	6.625
298.15 K, x1 = 0.6012	6.061
298.15 K, x1 = 0.6986	5.082
298.15 K, x1 = 0.783	4.349
298.15 K, x1 = 0.8985	3.469
298.15 K, x1 = 0.9474	3.145
303.15 K, x1 = 0.0582	12.73
303.15 K, x1 = 0.098	12.07
303.15 K, x1 = 0.2036	10.21
303.15 K, x1 = 0.2996	8.621
303.15 K, x1 = 0.4	7.191
303.15 K, x1 = 0.4503	6.57
303.15 K, x1 = 0.5015	5.989
303.15 K, x1 = 0.543	5.563
303.15 K, x1 = 0.6003	5.022
303.15 K, x1 = 0.703	4.185
303.15 K, x1 = 0.8036	3.495
303.15 K, x1 = 0.8935	2.979
303.15 K, x1 = 0.95	2.691

CCCCOCCO + OCCOCCO
[1], 101 kPa
Conditions	viscosity [mPa·s]
293.15 K, x1 = 0.0527	34.87
293.15 K, x1 = 0.1006	31.53
293.15 K, x1 = 0.1978	25.56
293.15 K, x1 = 0.2838	21.2
293.15 K, x1 = 0.3994	16.51
293.15 K, x1 = 0.4508	14.78
293.15 K, x1 = 0.5016	13.23
293.15 K, x1 = 0.5487	11.92
293.15 K, x1 = 0.5792	11.12
293.15 K, x1 = 0.6735	8.899
293.15 K, x1 = 0.7975	6.435
293.15 K, x1 = 0.8946	4.816
293.15 K, x1 = 0.9556	3.894
298.15 K, x1 = 0.0486	27.11
298.15 K, x1 = 0.0983	24.47
298.15 K, x1 = 0.2015	19.76
298.15 K, x1 = 0.2993	16.07
298.15 K, x1 = 0.3999	12.89
298.15 K, x1 = 0.4504	11.5
298.15 K, x1 = 0.4981	10.3
298.15 K, x1 = 0.5447	9.244
298.15 K, x1 = 0.5844	8.422
298.15 K, x1 = 0.6781	6.756
298.15 K, x1 = 0.7974	5.096
298.15 K, x1 = 0.8989	3.946
298.15 K, x1 = 0.9494	3.392
303.15 K, x1 = 0.0465	19.89
303.15 K, x1 = 0.0998	17.79
303.15 K, x1 = 0.2008	14.36
303.15 K, x1 = 0.2979	11.66
303.15 K, x1 = 0.4002	9.382
303.15 K, x1 = 0.4487	8.472
303.15 K, x1 = 0.491	7.751
303.15 K, x1 = 0.5513	6.832
303.15 K, x1 = 0.6	6.167
303.15 K, x1 = 0.7032	4.949
303.15 K, x1 = 0.8025	3.971
303.15 K, x1 = 0.8829	3.29
303.15 K, x1 = 0.9536	2.765
